The assay concerns the target T1, endogenous BK channel (Rattus norvegicus, UniProt Q62976).
T1 construct: gene Kcnma1; endogenous BK in A7r5 smooth muscle cells
Put plainly: whole-cell patch-clamp, paxilline-sensitive current density in A7r5 cells. The class given is cell-based. (In general: In patch-clamp work, channel activity is measured electrically.)

T1 sequence (Q62976 whole entry): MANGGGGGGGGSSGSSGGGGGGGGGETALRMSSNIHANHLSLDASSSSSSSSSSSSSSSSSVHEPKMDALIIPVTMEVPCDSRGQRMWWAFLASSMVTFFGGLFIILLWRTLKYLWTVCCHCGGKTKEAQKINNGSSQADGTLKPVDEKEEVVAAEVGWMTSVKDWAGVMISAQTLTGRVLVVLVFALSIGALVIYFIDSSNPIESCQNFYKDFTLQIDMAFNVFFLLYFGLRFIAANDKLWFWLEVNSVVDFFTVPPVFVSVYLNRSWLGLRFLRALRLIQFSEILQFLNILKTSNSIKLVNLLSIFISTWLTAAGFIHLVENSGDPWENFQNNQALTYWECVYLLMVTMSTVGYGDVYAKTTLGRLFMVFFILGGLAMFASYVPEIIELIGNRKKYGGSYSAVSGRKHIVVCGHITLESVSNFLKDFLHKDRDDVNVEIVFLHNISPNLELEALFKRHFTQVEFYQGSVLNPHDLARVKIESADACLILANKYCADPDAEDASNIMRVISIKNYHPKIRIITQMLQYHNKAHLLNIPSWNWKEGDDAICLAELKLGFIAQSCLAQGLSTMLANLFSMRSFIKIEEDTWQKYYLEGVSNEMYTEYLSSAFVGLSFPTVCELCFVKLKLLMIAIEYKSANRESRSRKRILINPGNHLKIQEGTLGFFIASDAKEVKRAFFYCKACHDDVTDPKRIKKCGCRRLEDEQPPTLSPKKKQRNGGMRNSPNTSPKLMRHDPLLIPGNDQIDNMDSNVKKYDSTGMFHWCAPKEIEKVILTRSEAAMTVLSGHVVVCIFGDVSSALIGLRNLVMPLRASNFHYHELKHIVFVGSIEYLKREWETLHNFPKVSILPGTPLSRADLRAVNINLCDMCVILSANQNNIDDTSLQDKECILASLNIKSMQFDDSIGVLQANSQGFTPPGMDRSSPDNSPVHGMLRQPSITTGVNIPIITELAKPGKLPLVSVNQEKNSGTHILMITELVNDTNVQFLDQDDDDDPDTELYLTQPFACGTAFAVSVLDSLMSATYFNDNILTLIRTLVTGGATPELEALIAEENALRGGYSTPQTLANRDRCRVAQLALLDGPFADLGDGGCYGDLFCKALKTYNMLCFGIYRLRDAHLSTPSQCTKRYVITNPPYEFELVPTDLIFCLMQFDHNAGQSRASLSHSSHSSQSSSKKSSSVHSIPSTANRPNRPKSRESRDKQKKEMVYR

For orientation: EC50 means the concentration giving half of the maximal effect. A lower EC50 goes with an effect from little substance. For `COc1cc(/C=C/C(=O)CC(=O)/C=C/c2ccc(O)c(OC)c2)ccc1O` [curcumin], the response was half-maximal at 6.93 ± 0.78 µM (EC50).

The values are drawn from paper PMC4682634 (PLoS ONE, 2015).
